Reference: patent US12655116B2, “Substituted isophthalic acid diamides” (Bayer Aktiengesellschaft, priority 2020, dated 2026)

What was measured:
LOLRI = assay: Pre-emergence herbicidal action against LOLRI; format: in vivo, Lolium rigidum; details: 80 g/ha
Summary of the method: (§1)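 Sandy loam pots, seeds covered with soil, then surface-treated with WP or EC formulations at 600–800 l/ha water plus 0.2% wetting agent. Greenhouse, 3 weeks. Percent damage vs untreated controls.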

ECHCG [1] = assay: Post-emergence herbicidal action against ECHCG; format: in vivo, Echinochloa crus-galli; details: dosage 20 g/ha
Summary of the method: (§2)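 Herbicidal action is a visual percentage rating (0% = as untreated control, 100% = plants dead) made roughly 3 weeks after treatment. Plants were grown in sandy loam in the greenhouse and treated at the one-leaf stage, 2 to 3 weeks post-sowing. Treatment was a foliar spray of wettable-powder or emulsion-concentrate formulations at 600 to 800 l/ha water plus 0.2% wetting agent.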

PHBPU [2] = assay: Pre-emergence herbicidal action against PHBPU; format: in vivo, Pharbitis purpurea
Summary of the method: as §1

MATIN [3] = assay: Pre-emergence herbicidal action against MATIN; format: in vivo, Matricaria inodora
Summary of the method: as §1

DIGSA [4] = assay: Pre-emergence herbicidal action against DIGSA; format: in vivo, Digitaria sanguinalis
Summary of the method: as §1

ECHCG [5] = assay: Pre-emergence herbicidal action against ECHCG; format: in vivo, Echinochloa crus-galli
Summary of the method: as §1

VERPE = assay: Post-emergence herbicidal action against VERPE; format: in vivo, Veronica persica
Summary of the method: as §2

ABUTH = assay: Pre-emergence herbicidal action against ABUTH; format: in vivo, Abutilon theophrasti; details: for Pre-emergence action against ABUTH (herbicidal activity): 80 g/ha, scored visually after 3 weeks vs untreated controls (100% = plants have died, 0% = like control plants)
Summary of the method: as §1

AVEFA = assay: Pre-emergence herbicidal action against AVEFA; format: in vivo, Avena fatua; details: for Pre-emergence action against AVEFA in %: 80 g/ha
Summary of the method: as §1

ALOMY [6] = assay: Post-emergence herbicidal action against ALOMY; format: in vivo, Alopecurus myosuroides; details: dosage 20 g/ha, visual assessment about 3 weeks after treatment vs untreated controls
Summary of the method: as §2

AMARE [7] = assay: Pre-emergence herbicidal action against AMARE; format: in vivo, Amaranthus retroflexus
Summary of the method: as §1

MATIN [8] = assay: Post-emergence herbicidal action against MATIN; format: in vivo, Matricaria inodora; details: dosage 20 g/ha
Summary of the method: as §2

VIOTR [9] = assay: Post-emergence herbicidal action against VIOTR; format: in vivo, Viola tricolor
Summary of the method: as §2

SETVI [10] = assay: Post-emergence herbicidal action against SETVI; format: in vivo, Setaria viridis
Summary of the method: as §2

PHBPU [11] = assay: Post-emergence herbicidal action against PHBPU; format: in vivo, Pharbitis purpurea; details: dosage 20 g/ha
Summary of the method: as §2

SETVI [12] = assay: Pre-emergence herbicidal action against SETVI; format: in vivo, Setaria viridis
Summary of the method: as §1

AMARE [13] = assay: Post-emergence herbicidal action against AMARE; format: in vivo, Amaranthus retroflexus; details: 20 g/ha, visual assessment about 3 weeks after treatment, 100% = plants have died, 0% = like control plants
Summary of the method: as §2

VIOTR [14] = assay: Pre-emergence herbicidal action against VIOTR; format: in vivo, Viola tricolor
Summary of the method: as §1

ALOMY [15] = assay: Pre-emergence herbicidal action against ALOMY; format: in vivo, Alopecurus myosuroides; details: 80 g/ha, pre-emergence, scored visually after 3 weeks vs untreated controls (100% = plants have died, 0% = like control plants)
Summary of the method: as §1

DIGSA [16] = assay: Post-emergence herbicidal action against DIGSA; format: in vivo, Digitaria sanguinalis; details: 20 g/ha
Summary of the method: as §2

[17] = 20 g/ha, scored visually after 3 weeks vs untreated controls, 100% = plants have died, 0% = like control plants
[18] = 80 g/ha, scored visually after 3 weeks vs untreated controls (100% = plants have died, 0% = like control plants)

Compound	Pre-emergence action against LOLRI in % (LOLRI)	Post-emergence action against ECHCG in % (ECHCG [1])	Pre-emergence action against PHBPU in % (PHBPU [2]; dosage 80 g/ha)	Pre-emergence action against MATIN in % (MATIN [3]; dosage 20 g/ha)	Pre-emergence action against MATIN in % (MATIN [3]; dosage 80 g/ha)	Pre-emergence action against DIGSA in % (DIGSA [4]; dosage 80 g/ha)	Pre-emergence action against ECHCG in % (ECHCG [5]; 80 g/ha)	Post-emergence action against VERPE in % (VERPE; 20 g/ha)	Pre-emergence action against ABUTH (herbicidal activity) (ABUTH)	Pre-emergence action against AVEFA in % (AVEFA)	Post-emergence action against ALOMY in % (ALOMY [6])	Pre-emergence action against AMARE in % (AMARE [7]; [17])	Pre-emergence action against AMARE in % (AMARE [7]; [18])	Post-emergence action against MATIN in % (MATIN [8])	Post-emergence action against VIOTR in % (VIOTR [9]; 20 g/ha)	Post-emergence action against PHBPU in % (PHBPU [11])	Pre-emergence action against SETVI in % (SETVI [12]; dosage 20 g/ha)	Pre-emergence action against SETVI in % (SETVI [12]; dosage 80 g/ha)	Post-emergence action at 20 g/ha against AMARE in % (AMARE [13])	Pre-emergence action against VIOTR in % (VIOTR [14]; dosage 80 g/ha)	further results
CCn1nnnc1NC(=O)c1ccc(C(F)(F)F)c(C(=O)NCC(F)(F)F)c1Cl [Example 2-133]	80%	80%	80%	90%	100%	90%	100%	80%	100%	90%	80%	90%	100%	90%	80%	80%	100%	100%	90%	90%	Post-emergence action against VERPE in % (VERPE; 5 g/ha): 80%; Post-emergence action against SETVI in % (SETVI [10]; dosage 5 g/ha): 80%; Post-emergence action against SETVI in % (SETVI [10]; dosage 20 g/ha): 90%; Pre-emergence action against ALOMY (herbicidal activity) (ALOMY [15]): 90%
CCn1nnnc1NC(=O)c1ccc(C(F)(F)F)c(C(=O)NCC(F)F)c1Cl [Example 2-134]	80%	90%	90%	90%	100%	100%	100%	80%	100%	90%	80%	100%	100%	80%	90%	90%	80%	100%	100%	100%	Pre-emergence action against PHBPU in % (PHBPU [2]; dosage 20 g/ha): 80%; Pre-emergence action against DIGSA in % (DIGSA [4]; dosage 20 g/ha): 80%; Pre-emergence action against ECHCG in % (ECHCG [5]; 20 g/ha): 80%; Pre-emergence action against ABUTH (herbicidal activity in percent) (ABUTH; dosage 20 g/ha, scored visually after 3 weeks vs untreated controls, 100% = plants have died, 0% = like control plants): 100%; Pre-emergence action against AVEFA (AVEFA; 20 g/ha, scored visually after 3 weeks, 100% = plants have died, 0% = like control plants): 80%; Post-emergence action against VIOTR in % (VIOTR [9]; 5 g/ha): 80%; Post-emergence action against DIGSA (DIGSA [16]): 80%; Pre-emergence action against VIOTR in % (VIOTR [14]; dosage 20 g/ha): 100%; Pre-emergence action against ALOMY (herbicidal activity) (ALOMY [15]): 90%
